We go through 1 substance from patent US20140088034A1, “NITRIC OXIDE/cGMP PATHWAY INHIBITION OF VLA-4 RELATED CELL ADHESION” (STC.UNM, priority 2011, published 2014).

Read-outs that look alike come from different tables or passages of the source.

Experiment [1] concerns the target T1, VLA-4 (Homo sapiens, UniProt P05556+P13612). As to the kind of experiment: Kinetic dissociation rate (koff) analysis of LDV-FITC probe on U937 cells with non-desensitizing FPR mutant. Format: cell-based. The following applies: U937 FPR ΔST, LDV-FITC 25 nM, LDV block 2 μM. As to the method: The experiment involved sequential addition of BAY 41-2272 (100 μM, guanylyl cyclase activator) or vehicle (control) at the 0 time point, and the fluorescent LDV-FITC probe (4 nM), and CXCL8/IL-8 (20 nM) (arrows). Excess unlabelled competitor LDV (1 μM) added at the end of the experiment to determine the non-specific binding of the probe. This experiment is analogous to the one shown in panel B. One representative experiment of two experiments is shown. Curves are means of two independent determinations calculated on a point-by-point basis (n=2). […] D, Kinetic analysis of binding and dissociation of LDV-FITC probe on U937 cells stably transfected with the non-desensitizing mutant of FPR. Cells were sequentially treated with the LDV-FITC probe (25 nM, near saturation), the Gαi-coupled receptor ligand (fMLFF, 100 nM), BAY 41-2272 (guanylyl cyclase activator, 50 μM) (arrows). At time points indicated by arrows, cells were treated with excess unlabeled LDV containing small molecule (2 μM), and the dissociation of the fluorescent molecule was followed. Dissociation rate constants (koff) were obtained by fitting dissociation curves to a single exponential decay equation (as described in the text). Experiments shown in the different panels were performed using different instruments, and therefore MCF values are not identical. E, Dissociation rate values, obtained in experiments analogous to panel B, summarized as a bar graph showing mean and SEM (n=4). Colors of the dissociation curves in panel D and bars on panel E are matching. The difference between koffs for “resting” and “fMLFF activated”, and between “fMLFF activated” and “fMLFF activated and treated with BAY 41-2272” is statistically significant (P=0.0006<0.05) as calculated by one-way analysis of variance (ANOVA) using GraphPad Prism software. […]
Next, the regions of the ligand-binding curves corresponding to the dissociation of the LDV-FITC probe were fitted to a single exponential decay equation. […] The affinity state induced by guanylyl cyclase activator was quantitatively similar to the resting state before activation. […]

Experiment [2] addresses T1, VLA-4. As to the kind of experiment: LDV-FITC equilibrium binding to VLA-4 (Kd and calculated receptor occupancy). The source says: Previously, we described and characterized in detail a model ligand an LDV-FITC containing small molecule ([14, 42-44], and references therein) for the detection of VLA-4 conformational regulation. This VLA-4 specific fluorescent probe was based on a highly specific α4β1-integrin inhibitor BIO1211, which contains the Leu-Asp-Val (LDV) ligand binding motif from the alternatively spliced connecting segment-1 (CS-1) peptide of cellular fibronectin [17, 45]. We established that integrin affinity changes, detected using this probe, vary in parallel with the natural VLA-4 ligand, human VCAM-1 [46]. For real-time detection of rapid integrin conformational changes, cells were treated with LDV-FITC (FIG. 2, first arrow), which was added after establishing a baseline for unstained cells, indicated on FIG. 2A as “autofluorescence”. Next, data were acquired for 2-3 minutes, and cells were activated with fMLFF (high affinity FPR ligand), CXCL12/SDF-1 (CXCR4 ligand), or CXCL8/IL-8 (CXCR2 ligand), for FPR, CXCR4, CXCR2 transfected cells, respectively (FIGS. 2A, B, and C). […] The change in occupancy was detected as a rapid increase in the mean channel fluorescence (MCF). This signal increase was sustained for the case of a non-desensitizing mutant of FRP (FIG. 2A), and reversible for the wild-type receptors (CXCR4, and CXCR2, FIG. 2B,C). Next, cells were treated with the nitric oxide donor, or vehicle (control). Acquisition was re-established, and data were acquired continuously for up to 720-840 s. […] In the absence of receptor desensitization, the effect of nitric oxide was more evident in cells transfected with a non-desensitizing mutant of FPR (vehicle, FIG. 2A). However, the effect of the nitric oxide donor was statistically significant for both wild-type GPCRs. […] To emphasize statistically the difference between control and experimental samples, standard errors of mean are indicated using error bars for every experimental point in FIG. 2B, 2C, 2D, 2E.
Kinetic analysis of the binding and dissociation of the LDV-FITC probe was described previously. […]

In experiment [3] the target is T1, VLA-4. The following applies: cited from earlier work.
[4] abbreviates: 4 nM probe, calculated based on the one site binding equation.

T1 sequence (P13612 34-1032): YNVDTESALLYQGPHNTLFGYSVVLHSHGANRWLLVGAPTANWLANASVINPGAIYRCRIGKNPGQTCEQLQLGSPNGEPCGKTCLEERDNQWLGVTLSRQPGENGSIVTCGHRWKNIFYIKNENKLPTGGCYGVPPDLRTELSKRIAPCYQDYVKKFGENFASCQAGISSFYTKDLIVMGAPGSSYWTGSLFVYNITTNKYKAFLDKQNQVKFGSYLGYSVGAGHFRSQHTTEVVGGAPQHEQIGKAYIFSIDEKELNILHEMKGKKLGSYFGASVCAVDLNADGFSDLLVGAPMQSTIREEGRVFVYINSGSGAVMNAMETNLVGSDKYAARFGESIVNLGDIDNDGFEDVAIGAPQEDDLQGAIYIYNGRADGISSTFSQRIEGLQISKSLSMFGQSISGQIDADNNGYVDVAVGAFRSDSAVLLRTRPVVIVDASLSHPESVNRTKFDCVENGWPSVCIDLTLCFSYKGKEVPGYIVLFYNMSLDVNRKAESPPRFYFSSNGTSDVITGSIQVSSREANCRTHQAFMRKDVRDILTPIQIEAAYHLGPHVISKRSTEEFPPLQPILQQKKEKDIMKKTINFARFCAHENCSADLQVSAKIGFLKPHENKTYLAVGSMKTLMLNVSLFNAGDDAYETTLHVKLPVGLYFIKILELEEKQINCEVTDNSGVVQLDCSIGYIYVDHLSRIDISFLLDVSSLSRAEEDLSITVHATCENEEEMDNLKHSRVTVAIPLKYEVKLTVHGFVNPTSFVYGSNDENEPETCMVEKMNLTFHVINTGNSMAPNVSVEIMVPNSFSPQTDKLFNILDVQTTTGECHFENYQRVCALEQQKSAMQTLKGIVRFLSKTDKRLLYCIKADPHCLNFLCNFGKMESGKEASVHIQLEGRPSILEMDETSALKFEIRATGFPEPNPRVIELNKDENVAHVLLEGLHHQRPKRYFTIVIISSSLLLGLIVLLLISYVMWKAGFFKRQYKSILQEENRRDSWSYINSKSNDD
T1 sequence (P05556 21-798): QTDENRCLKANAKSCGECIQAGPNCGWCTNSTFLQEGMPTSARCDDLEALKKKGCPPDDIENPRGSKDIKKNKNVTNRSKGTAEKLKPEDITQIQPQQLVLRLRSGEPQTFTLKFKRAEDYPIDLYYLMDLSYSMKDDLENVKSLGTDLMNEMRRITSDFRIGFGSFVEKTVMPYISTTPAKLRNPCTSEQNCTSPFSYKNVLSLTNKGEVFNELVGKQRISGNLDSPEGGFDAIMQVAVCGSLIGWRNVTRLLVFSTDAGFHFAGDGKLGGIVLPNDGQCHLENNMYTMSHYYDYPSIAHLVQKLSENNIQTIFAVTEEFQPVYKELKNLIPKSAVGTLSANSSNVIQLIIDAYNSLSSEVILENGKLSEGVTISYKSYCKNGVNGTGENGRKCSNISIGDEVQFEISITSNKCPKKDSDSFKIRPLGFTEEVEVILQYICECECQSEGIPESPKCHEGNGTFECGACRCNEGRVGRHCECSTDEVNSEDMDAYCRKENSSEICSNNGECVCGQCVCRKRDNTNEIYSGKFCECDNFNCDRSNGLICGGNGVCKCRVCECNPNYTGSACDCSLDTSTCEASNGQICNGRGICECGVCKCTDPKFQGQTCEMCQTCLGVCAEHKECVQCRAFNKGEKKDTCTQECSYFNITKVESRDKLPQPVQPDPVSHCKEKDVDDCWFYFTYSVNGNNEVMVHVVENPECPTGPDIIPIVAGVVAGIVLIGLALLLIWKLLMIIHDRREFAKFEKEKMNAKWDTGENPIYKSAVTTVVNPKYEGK

For the substance “4-((N′-2-methylphenyl)ureido)-phenylacetyl-L-leucyl-L-aspartyl-L-valyl-L-prolyl-L-alanyl-L-alanyl-L-lysine-FITC [LDV-FITC]”, at VLA-4 [1] (at rest), the “dissociation rate constant koff of LDV-FITC, resting cells” value was approximately 0.04 ± 0.001 s⁻¹. Besides, the “dissociation rate constant koff of LDV-FITC after cell activation by fMLFF” value at VLA-4 [1] (fMLFF 100 nM) is approximately 0.018 ± 0.0001 s⁻¹. Moreover, the “receptor occupancy, high affinity state” value at VLA-4 [2] (setting [4]) was 70-80%. For the same substance, the “receptor occupancy, low affinity state” value on VLA-4 [2] (setting [4]) was approximately 25%. Besides, the “sites occupied before activation” value on VLA-4 [2] (25 nM probe, low affinity state) was approximately 70%. Besides, the Kd (commonly the concentration at which binding is half-saturated) at VLA-4 [3] (physiologically activated VLA-4, high affinity state, read-out: Kd for physiologically activated VLA-4 (high affinity state)) was 1 to 2 nM; at VLA-4 [3] (resting VLA-4, low affinity state, read-out: Kd for binding to resting VLA-4 (low affinity state)), approximately 12 nM.
